Laboratory results: patent publication US20040235801A1, “Therapy for stroke” (priority 2001, published 2004)

Tested on: C57BL/6 mice
Test: Size of infarction after 90 minutes MCA occlusion (tetrazolium red)
Assay type: in vivo, mouse
Settings: 24 hours after 90 min MCAO; treatment 2.5 hours after MCAO, i.p.; % of contralateral side
Procedure: Adult (3-5 months old) male C57BL/6 mice were obtained from Charles River Inc. (Saint-Constant, Quebec, Canada). All experimental procedures were approved by the MUHC animal care committee according to the guidelines of the Canadian Council for Animal Care. All animals were allowed free access to water before and after surgery.
Unilateral focal cerebral ischemia was induced by occlusion of the medial cerebral artery (MCA) in the left cerebral hemisphere during 1.5 hours. The MCA occlusions in mice is carried out on ˜30 C57BI/6 mice weighing 20-25 g from an adaptation of a method previously described in rats (Beaulieu, J. M., Kriz, J. and Julien, J. P. ,2002, Brain.Res. 946, 153-161). The animals were anesthetized by administration of ketamine/xylazine mg/kg i.m. To avoid hypothermia, the mouse body temperature was maintained at 37° C. with an infrared heating lamp and warm pad. […]
The area of infarct was estimated in the minimum of animals (5-7 mice) from each experimental group. […] The area of infarct was estimated according to the tetrazolium red staining, calculated in arbitrary units pixels and expressed as a percentage of a total control area, the contralateral non-stroked side of the brain. […] The infarct volume was calculated by summing up the infarct area in multiple slices. […]

In the case of `CN(C)c1ccc(O)c2c1C[C@H]1C[C@H]3[C@H](N(C)C)C(O)=C(C(N)=O)C(=O)[C@@]3(O)C(O)=C1C2=O` [Minocycline, minocycline], the “% of ischemic area” value was 38.4%.
